Results taken from patent publication US20250213614A1, “Modified RELA Protein for Inducing Interferon Expression and Engineered Immune Cells with Improved Interferon Expression” (Institut Curie, priority 2022, published 2025).

What was measured:
Type in all cases: cell-based, human
CD4+ T cells [1] = assay: IFN-I/III quantification (LEGENDplex) in CD4+ T cells, baseline or after STING stimulation; conditions: for IFNλ1 after cGAMP stimulation: 2D, 2F
Protocol: (§1) Plasmapheresis blood pockets were obtained from healthy adult volunteers after informed consent from the EFS (Establishment of French blood collection). Peripheral blood mononuclear cells (PBMCs) were isolated using Ficoll-Paque Plus (GE-17144003) and left overnight at 4° C. in RPMI (Thermo fischer #61870-010) with 10% heat-decomplemented fetal bovine serum (FBS, Eurobio #CVFSVFO0-01). CD14+ cells were enriched by positive selection (Miltenyi #130-050-201), the CD14 negative fraction was subsequently used to isolate total CD4+ T cells by negative selection (Stem Cell #17952). CD14+ cells were cultured in RPMI containing 10% FBS, 5% Penicillin-Streptomycin (PS, Thermo Fisher #10378-016), 50 μg/ml Gentamicin (Thermo Fisher #15750-045) and 10 mM HEPES (Thermo Fisher #15630-056). CD14+ cells were differentiated ex vivo into MDDC by supplementing the culture media with 50 ng/ml IL-4 (Miltenyi #130-093-922) and 10 ng/ml GM-CSF (Miltenyi #130-093-867). MDDC were used for experiments 3 or 4 days following the start of the culture. CD14+ cells were differentiated ex vivo into macrophages by adding 50 ng/ml MCSF (Miltenyi #130-096-492) to the culture media containing RPMI with 1% PS, 5% FBS and 5% human serum (Sigma #H4522). MDM were used 7 days following culture. Freshly isolated CD4+ T cells were cultured in X-VIVO 15 (Lonza #BE02-060F) and activated using anti-CD3 and anti-CD28 Dynabeads (fisher scientific #10548353) at the ratio of 1:5 (bead:cell). 100 U/ml human IL-2 (Immunotools #11340027) was added to cultures 2 days following TCR stimulation and media with IL-2 was replenished every 48 hours. To assess proliferation, freshly isolated CD4+ T cells were stained with cell proliferation dye (thermo fischer #65-0840-85) prior to TCR stimulation.
(§2) CD14+ cells were plated at 1 million cells/ml and transduced with equal volumes of freshly harvested SIV-VLPs and pTRIP-SFFV vectors in the presence of 8 μg/ml protamine (Sigma #P4020). CD4+ T cells were transduced with lentivectors 24 hours post-TCR stimulation in 100 μl of cells (0.2 million cells) and 100 μl of freshly harvested lentivirus in the presence of 8 μg/ml protamine. T cells were spinoculated at 1200 g for 2 hours at 25° C. 0.5 million THP-1 cells in 500 μl media (RPMI 10% FBS 1% PS) were transduced with 500 μl freshly harvested lentivirus in the presence of 8 μg/ml protamine. 1 μg/ml Puromycin (Invivogen #ant-pr-1) was added 2 days post-transduction when cells were transduced with pLKO.1-puro plasmid.
For stimulation of STING by extracellular ligands, 2.5 μg of ADUS100 (invivogen #tlrl-nacda2r-01) or 2′3′-cGAMP (cGAMP, invivogen #tlrl-nacga23-02) was added to 100,000 cells in 100 μl media either on freshly isolated primary cells or 3-4 days post differentiation for MDDC and 3 days post-TCR stimulation for CD4+ T cells. Cells and supernatant were harvested 18-24 hours post stimulation. For delivery of STING ligands after permeabilization, T cells were used 3 or 4 days post TCR stimulation and MDDC were used 3-4 days following differentiation. 150,000 cells were plated in round bottom 96-well plate. Media was removed by centrifugation and 20 μl 2× permeabilization buffer (100 mM HEPES, 200 mM KCl, 6 mM MgCl2, 0.2 mM DTT, 170 mM Sucrose, 2 mM ATP, 2 mM GTP, 0.4% bovine serum albumin (BSA), 20 μg/ml digitonin) and 20 μl cGAMP (12 μg/ml) was added to cells. 18 to 20 hours following stimulation supernatants and cells were harvested. Cells were stained with a fixable viability dye (Invitrogen #65-0865-14) and acquired on a FACSVerse (BD). […]
Where indicated, cells were treated with 5-Azacytidine (5AZA, Sigma #A2385) 48 hours prior to cGAMP stimulation. Fresh 5AZA was added daily to cells, and media was replenished with 5AZA following cGAMP stimulation. 100 nM Trichostatin A (TSA) (sigma #T1952) was added to cells following cGAMP stimulation and left overnight. […]

CD4+ T cells [2] = assay: Bulk RNAseq of activated CD4+ T cells after cGAMP; conditions: five hours after cGAMP 6 μg/ml
Protocol: Five hours following cGAMP (6 μg/ml) stimulation of activated CD4+ T cells, total RNA was extracted (Macherey-Nagel #740955.50). […] RNA sequencing libraries were prepared from 500 ng of total RNA using the Illumina TruSeq Stranded mRNA Library preparation kit. A first step of polyA selection using magnetic beads was performed to focus sequencing on polyadenylated transcripts. After fragmentation, cDNA synthesis was performed and resulting fragments were used for dA-tailing and ligated to the TruSeq indexed adapters. PCR amplification was performed to create the final cDNA library (with 13 cycles). After quantification of PCR products, sequencing was carried out using 2*100 cycles (paired-end reads, 100 nucleotides) on a Novaseq6000 instrument, targeting 25M clusters. The data was aligned to the hg19 (ENSEMBL annotation: v.74) genome using the RNA-seq pipeline of the Curie bioinformatics platform, rnaseq v3.1.1. Reads were trimmed with TrimGalore (v.0.6.2) and aligned on the reference genome using STAR (v 2.6.1) ^71. Quality control was done with picard (v.2.18.15), RSeQC (v.2.6.4) and preseq (v.2.0.3)^72. Read counts were generated with STAR. Quality reports were generated with MultiQC (v.1.7). […]

[3] = system: STING, TBK1, IRF3, RELA, IRF7; assay: Western blot of key signaling proteins involved in STING signaling; conditions: for endogenous RELA expression: overexpression in CD4+ T cells and MDDC, FIG. 2C
Protocol: 0.5 million cells were lysed for 30 minutes on ice in 50 μl RIPA buffer (50 mM Tris HCl, 150 mM NaCl, 0.1% SDS, 0.5% DOC, 1% NP-40) with Protease inhibitor (Roche #1187358001). To evaluate, phospho-proteins 50 mM NaF and 1 mM sodium orthovanadate were added to the lysis buffer. Protein lysates were cleared by centrifugation at 12,000 g for 10 to 12 minutes at 4° C. 10 μl of 6× Laemmli buffer (fisher scientific #J61337) was added to 50 μl protein lysates and samples were boiled at 95° C. for 15 minutes. Protein samples were resolved on 4%-20% Biorad precast SDS-PAGE gels (#5671125) and transferred onto PVDF membranes (BioRad #1704157). Membranes were blocked in 5% non-fat dry milk in PBS 0.1% tween or in TBS 5% BSA 0.1% Tween to detect phosphorylated proteins. Primary antibodies were used at 1:1000:phospho-STING (clone-D7C3S), STING (clone-D2P2F), serine 172 phospho-TBK1 (clone-D52C2), TBK1 (clone-D11B4), serine 396 phospho IRF3 (clone-D6O1M), IRF3 (clone-D83B9), RELA (clone-C22B4), IRF7 (clone-12G9A36), cGAS (clone-D1 D3G), Actin (clone-C4), Sendai viral proteins (Biozol #MBL-PD029). Secondary anti-rabbit or anti-mouse antibody were used at 1:10,000 (santa cruz #sc-2357, #sc-516102). ECL signal (Biorad #1705061 and #1705062) was recorded on a ChemiDoc Touch Biorad Imager. Data was analyzed and quantified with Image Lab software (Biorad). In figures, dotted lines indicate reordering of lanes from a single original membrane for visualization purpose.

MDDC = assay: IFN-I/III quantification (LEGENDplex) in MDDC after STING stimulation; conditions: lentivector overexpression in MDDC, cGAMP 6 μg/ml; for IFN-I/III response to cGAMP compared to the control condition: FIG. 2D
Protocol: as §1, §2
For stimulation of STING by extracellular ligands, 2.5 μg of ADUS100 (invivogen #tlrl-nacda2r-01) or 2′3′-cGAMP (cGAMP, invivogen #tlrl-nacga23-02) was added to 100,000 cells in 100 μl media either on freshly isolated primary cells or 3-4 days post differentiation for MDDC and 3 days post-TCR stimulation for CD4+ T cells. Cells and supernatant were harvested 18-24 hours post stimulation. For delivery of STING ligands after permeabilization, T cells were used 3 or 4 days post TCR stimulation and MDDC were used 3-4 days following differentiation. 150,000 cells were plated in round bottom 96-well plate. Media was removed by centrifugation and 20 μl 2× permeabilization buffer (100 mM HEPES, 200 mM KCl, 6 mM MgCl2, 0.2 mM DTT, 170 mM Sucrose, 2 mM ATP, 2 mM GTP, 0.4% bovine serum albumin (BSA), 20 μg/ml digitonin) and 20 μl cGAMP (12 μg/ml) was added to cells. 18 to 20 hours following stimulation supernatants and cells were harvested. Cells were stained with a fixable viability dye (Invitrogen #65-0865-14) and acquired on a FACSVerse (BD).
For experiments with conditioned media, CD4+ T cell- and MDDC-conditioned media refer to […] filtered conditioned media from cultures of activated CD4+ T cell and MDDC, respectively. CD4+ T cells were pretreated with 100 μl of MDDC-conditioned media or of fresh MDDC culture media, 24 hours prior to cGAMP stimulation. […]

[4] = lentivector overexpression in CD4+ T cells, FIG. 2B

Nc1nc2c(ncn2[C@@H]2O[C@@H]3COP(=O)(O)O[C@H]4[C@@H](O)[C@H](n5cnc6c(N)ncnc65)O[C@@H]4COP(=O)(O)O[C@@H]2[C@@H]3O)c(=O)[nH]1 [cGAMP, 2′3′-cGAMP, reference compound]
IFNβ protein (CD4+ T cells [1]; cGAMP delivered by digitonin-mediated membrane permeabilization, FIG. 1F): undetectable | IFN response to STING ligands (CD4+ T cells [1]; resting blood CD4+ T cells, soluble ligand 1 μg or 2.5 μg, FIG. 1B): undetectable | IRF7 expression (RNAseq) (CD4+ T cells [2]): induced | phosphorylated levels of STING, TBK1 and IRF3, CD4+ T cells versus MDDC ([3]; 6 hours after cGAMP 6 μg/ml, FIG. 1G): identical

RELA: wild type human RELA protein (transcription factor p65, Uniprot Q04206), overexpressed from lentivector [reference compound]
IFNλ1 after cGAMP stimulation (CD4+ T cells [1]; [4]): tendency for increased IFNλ1 | IFN-I/III response to cGAMP, RNA and protein levels (CD4+ T cells [1]; lentivector overexpression in CD4+ T cells, cGAMP 6 μg/ml, FIG. 2B): did not significantly enhance | IFN-I/III response to cGAMP, RNA and protein levels (MDDC; FIG. 2B): did not significantly enhance | IFN-I/III response to cGAMP compared to the control condition (MDDC): remained unchanged | endogenous RELA expression [3]: no impact

B1: RELA K5Q: RELA mutant converting five lysine residues (K122, K123, K310, K314, K315) to glutamine, acetylation mimic (protein, UniProt Q04206 1-551, looked up, variant K122Q K123Q K310Q K314Q K315Q)
Transcription factor p65: MDELFPLIFPAEPAQASGPYVEIIEQPKQRGMRFRYKCEGRSAGSIPGERSTDTTKTHPTIKINGYTGPGTVRISLVTKDPPHRPHPHELVGKDCRDGFYEAELCPDRCIHSFQNLGIQCVQQRDLEQAISQRIQTNNNPFQVPIEEQRGDYDLNAVRLCFQVTVRDPSGRPLRLPPVLSHPIFDNRAPNTAELKICRVNRNSGSCLGGDEIFLLCDKVQKEDIEVYFTGPGWEARGSFSQADVHRQVAIVFRTPPYADPSLQAPVRVSMQLRRPSDRELSEPMEFQYLPDTDDRHRIEEKRKRTYETFQSIMQQSPFSGPTDPRPPPRRIAVPSRSSASVPKPAPQPYPFTSSLSTINYDEFPTMVFPSGQISQASALAPAPPQVLPQAPAPAPAPAMVSALAQAPAPVPVLAPGPPQAVAPPAPKPTQAGEGTLSEALLQLQFDDEDLGALLGNSTDPAVFTDLASVDNSEFQQLLNQGIPVAPHTTEPMLMEYPEAITRLVTGAQRPPDPAPAPLGAPGLPNGLLSGDEDFSSIADMDFSALLSQISS
IFNλ1 after cGAMP stimulation (CD4+ T cells [1]; [4]): abrogated | IFN-I/III response to cGAMP compared to the control condition (MDDC): remained unchanged | endogenous RELA expression [3]: no impact
